Assay: DPPH antioxidant (radical scavenging) test
Settings: 1 mM; absorbance relative to control, 517 nm, 30 minutes
Protocol: In order to measure the antioxidant effect of the ginseng extract prepared by the method of the present invention, a DPPH (1,1-diphenyl-2-picrylhydrazyl) method was used. DPPH is a color-developed radical, and can be used to directly confirm the radical removing ability of the same. […] An absorbance was measured at 517 nm to determine the amount of the remaining DPPH. The blank of this test is distilled water or a solvent, and a control is an experimental group composed only of DPPH and distilled water without the sample. The antioxidant ability (Radical Scavenging activity: RSA) was determined by the following equation 1, compared with the absorbances of the controls, and the lowered ratios are shown in Table 2. RSA (%)=[Absorbance of Hydroxylate/Absorbance of Control]×100 [Equation 1]

## O=C1O[C@H]([C@@H](O)CO)C(O)=C1O [Vitamin C]
  RSA (%): 35%
